Data: PubChem BioAssay (NCI)
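Five compound concentrations were applied to cells in 96-well plates for 48 hours; endpoints were derived by simple linear interpolation of the resulting dose-response curve. GI50 = concentration required for 50% inhibition of growth. TGI: total growth inhibition.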

Key:
Test in all cases: growth of human tumour cells (NCI), 48 h
HL-60(TB) leukemia = system: HL-60(TB) leukemia
A549 NSCLC = system: A549 NSCLC
CAKI-1 renal = system: CAKI-1 renal
NCI-H226 lung = system: NCI-H226 lung
HCT-15 colon = system: HCT-15 colon
LOX IMVI melanoma = system: LOX IMVI melanoma
SK-MEL-28 melanoma = system: SK-MEL-28 melanoma
COLO 205 colon = system: COLO 205 colon
M14 melanoma = system: M14 melanoma
BT-549 breast = system: BT-549 breast

SMILES: CC(C)(C)OC(=O)N[C@H]1CC2(C=C(Cl)C(=O)C(Cl)=C2)OC1=O
- TGI (HL-60(TB) leukemia): 6.53 µM
- TGI (A549 NSCLC): > 100 µM
- TGI (CAKI-1 renal): 26.5 µM
- TGI (NCI-H226 lung): > 81.6 µM
- TGI (HCT-15 colon): 34.9 µM
- TGI (LOX IMVI melanoma): 34.5 µM
- TGI (SK-MEL-28 melanoma): 25 µM
- TGI (COLO 205 colon): 14.9 µM
- TGI (M14 melanoma): 33.7 µM
- TGI (BT-549 breast): 29.9 µM

SMILES: N#CC(C#N)=CNC(N)=S
- TGI (HL-60(TB) leukemia): > 100 µM
- TGI (A549 NSCLC): > 100 µM
- TGI (CAKI-1 renal): > 100 µM
- TGI (NCI-H226 lung): > 100 µM
- TGI (HCT-15 colon): > 100 µM
- TGI (LOX IMVI melanoma): > 100 µM
- TGI (SK-MEL-28 melanoma): > 100 µM
- TGI (COLO 205 colon): > 100 µM
- TGI (M14 melanoma): > 100 µM
- TGI (BT-549 breast): > 100 µM

SMILES: N=Nc1c(OC(=O)Nc2cccc(Cl)c2)[nH]c2ccccc12
- TGI (HL-60(TB) leukemia): 30.9 µM
- TGI (A549 NSCLC): 18.7 µM
- TGI (CAKI-1 renal): 15.2 µM
- TGI (NCI-H226 lung): 34.5 µM
- TGI (HCT-15 colon): 18.9 µM
- TGI (LOX IMVI melanoma): 20.8 µM
- TGI (SK-MEL-28 melanoma): 28 µM
- TGI (COLO 205 colon): 19.4 µM
- TGI (M14 melanoma): 18.6 µM
- TGI (BT-549 breast): 20.1 µM

SMILES: OCc1ccc(-c2ccc(-c3ccc(CO)s3)o2)s1
- TGI (HL-60(TB) leukemia): 38.2 µM
- TGI (A549 NSCLC): 48.1 µM
- TGI (CAKI-1 renal): 0.061 µM
- TGI (NCI-H226 lung): 0.145 µM
- TGI (HCT-15 colon): 81 µM
- TGI (LOX IMVI melanoma): 79.7 µM
- TGI (SK-MEL-28 melanoma): > 91.9 µM
- TGI (COLO 205 colon): 3.01 µM
- TGI (M14 melanoma): > 84.3 µM
- TGI (BT-549 breast): 50.7 µM

SMILES: CC(C)[C@H]1COC(=O)N1[C@@H]1C(=O)N([C@@H](CCC(=O)N2CCN(C3CCCC3)CC2)C(=O)N[C@@H]2CCCc3ccccc32)[C@@H]1/C=C/c1cccc(Br)c1
- GI50 (HL-60(TB) leukemia): 1.91 µM
- TGI (HL-60(TB) leukemia): 4.9 µM
- GI50 (A549 NSCLC): 3.05 µM
- TGI (A549 NSCLC): 11.5 µM
- GI50 (CAKI-1 renal): 1.88 µM
- TGI (CAKI-1 renal): 4.01 µM
- GI50 (NCI-H226 lung): 3.49 µM
- TGI (NCI-H226 lung): 15.6 µM
- GI50 (HCT-15 colon): 1.69 µM
- TGI (HCT-15 colon): 3.63 µM
- GI50 (LOX IMVI melanoma): 0.376 µM
- TGI (LOX IMVI melanoma): 1.55 µM
- GI50 (COLO 205 colon): 1.5 µM
- TGI (COLO 205 colon): 3.11 µM
- GI50 (M14 melanoma): 1.8 µM
- TGI (M14 melanoma): 3.46 µM
- GI50 (BT-549 breast): 1.46 µM
- TGI (BT-549 breast): 3.11 µM

SMILES: C[C@@H]1CCC2[C@@H](C)[C@@H](OCC(CO[C@H]3OC4O[C@@]5(C)CC[C@H]6[C@H](C)CCC([C@H]3C)[C@@]46OO5)OC(=O)CCC(=O)O)OC3O[C@@]4(C)CC[C@@H]1[C@]32OO4 (stereo partly drawn)
- GI50 (HL-60(TB) leukemia): 0.0111 µM
- TGI (HL-60(TB) leukemia): 0.513 µM
- GI50 (A549 NSCLC): 0.971 µM
- TGI (A549 NSCLC): 32.6 µM
- GI50 (CAKI-1 renal): 0.022 µM
- TGI (CAKI-1 renal): 0.477 µM
- GI50 (NCI-H226 lung): 0.933 µM
- TGI (NCI-H226 lung): 40 µM
- GI50 (HCT-15 colon): < 0.01 µM
- TGI (HCT-15 colon): 12.8 µM
- GI50 (LOX IMVI melanoma): < 0.01 µM
- TGI (LOX IMVI melanoma): > 100 µM
- GI50 (SK-MEL-28 melanoma): 11.4 µM
- TGI (SK-MEL-28 melanoma): > 47.4 µM
- GI50 (COLO 205 colon): < 0.01 µM
- TGI (COLO 205 colon): 12.5 µM
- GI50 (M14 melanoma): 4.05 µM
- TGI (M14 melanoma): 26.9 µM
- GI50 (BT-549 breast): 3.74 µM
- TGI (BT-549 breast): 29.4 µM

SMILES: COc1ccc(-c2nnc(COc3ccc(C(=O)/C=C/c4ccco4)cc3)o2)cc1
- GI50 (HL-60(TB) leukemia): 2.65 µM
- TGI (HL-60(TB) leukemia): 7.38 µM
- GI50 (A549 NSCLC): 3.33 µM
- TGI (A549 NSCLC): 13.8 µM
- GI50 (CAKI-1 renal): 6.11 µM
- TGI (CAKI-1 renal): 19.7 µM
- GI50 (NCI-H226 lung): 4 µM
- TGI (NCI-H226 lung): 16.8 µM
- GI50 (HCT-15 colon): 1.8 µM
- TGI (HCT-15 colon): 4.25 µM
- GI50 (LOX IMVI melanoma): 1.71 µM
- TGI (LOX IMVI melanoma): 3.18 µM
- GI50 (SK-MEL-28 melanoma): 2.33 µM
- TGI (SK-MEL-28 melanoma): 5.41 µM
- GI50 (COLO 205 colon): 2.23 µM
- TGI (COLO 205 colon): 4.32 µM
- GI50 (M14 melanoma): 4.03 µM
- TGI (M14 melanoma): 14.6 µM
- GI50 (BT-549 breast): 2.87 µM
- TGI (BT-549 breast): 8.16 µM

SMILES: CC(=O)[C@@]12O[C@@H]1CC1C3CCC4=CC(O)CCC4(C)C3CCC12C (stereo partly drawn)
- GI50 (HL-60(TB) leukemia): > 100 µM
- TGI (HL-60(TB) leukemia): > 100 µM
- GI50 (A549 NSCLC): 72.7 µM
- TGI (A549 NSCLC): > 100 µM
- GI50 (CAKI-1 renal): > 100 µM
- TGI (CAKI-1 renal): > 100 µM
- GI50 (NCI-H226 lung): 75.9 µM
- TGI (NCI-H226 lung): > 100 µM
- GI50 (HCT-15 colon): 33.1 µM
- TGI (HCT-15 colon): > 100 µM
- GI50 (LOX IMVI melanoma): 44.4 µM
- TGI (LOX IMVI melanoma): > 100 µM
- GI50 (SK-MEL-28 melanoma): 69.4 µM
- TGI (SK-MEL-28 melanoma): > 100 µM
- GI50 (COLO 205 colon): 57.4 µM
- TGI (COLO 205 colon): > 100 µM
- GI50 (M14 melanoma): 95.9 µM
- TGI (M14 melanoma): > 100 µM
- GI50 (BT-549 breast): 27.8 µM
- TGI (BT-549 breast): > 100 µM
